According to US12291651B2, “Liquid crystal-infused slippery anti-fouling surfaces” (priority 2021, dated 2025):

Legend:
[1] = air-water interface; cited from earlier work
[2] = Contact angle and base diameter of surfactant droplets on LC-infused SLIPS; assay type: physicochemical; conditions: 50 μL droplets: 100 mM DBTAB aqueous; 100 μM SDS in PBS
S. aureus QS [3] = conditions: cited from earlier work
S. aureus QS [4] = test: Sliding time of droplets of S. aureus WT culture grown with QS inhibitor on LC-infused SLIPS; assay type: cell-based; conditions: WT S. aureus cultured 24 hours with 1 μM inhibitor; QS mutant ~7 s, WT ~27 s
Description: Characterization of Droplet Sliding Times. Characterization of the sliding times of droplets placed on the surfaces of LC-infused SLIPS was performed in the following general manner. LC-infused SLIPS were placed on a custom-made stage, and the stage was attached to the moving arm of a digital protractor using binding clips. The digital protractor was set at a specified sample angle, and a pre-determined volume of aqueous solution was placed as a droplet on the surface of the liquid-infused surface. Sliding droplets were recorded on digital video, and the time required for droplets to slide 4.0 cm along the surface was measured using a digital timer. […] For each surfactant solution, the sliding times of at least 3-5 droplets were measured and used to calculate an average sliding time with standard deviation. […]
Additional experiments were performed to determine whether LC-infused SLIPS could detect the presence of PSMs in live cultures of S. aureus and, thereby, provide methods to monitor QS in communities of this pathogen in ways analogous to the studies of P. aeruginosa above. For these experiments, a S. aureus WT strain and a QS mutant strain (lacking AgrBD, proteins critical for QS) were cultured for 24 hours and the sliding times of droplets of these cultures on LC-infused SLIPS were measured. […]

CCCCCCCCCCCC[N+](C)(C)C.[Br-] [DTAB, dodecyl-trimethylammonium bromide]
limiting surface area [1]: 55-63 Å^2

CCCCCCCCCCCCOS(=O)(=O)[O-].[Na+] [SDS, Sodium dodecyl sulfate]
droplet base diameter on LC-infused SLIPS [2]: 4.14±0.02 mm

AIP-III D4A
concentration that fully inhibits S. aureus QS (S. aureus QS [3]): ≥ 1 nM | sliding time of culture droplets (S. aureus QS [4]): ~7 s
